According to patent publication US20260069699A1, “Hybrid Curcumin Conjugates And Methods Of Use Thereof” (AUGUSTA UNIVERSITY RESEARCH INSTITUTE, INC., priority 2020, published 2026):

Legend:
MDA-MB231 (MB231) cells = test: MTT cell proliferation assay, MB231 cells; type: cell-based, human
Experimental: (§1) We tested the antitumor potential of All the synthesized six DCA-curcumin hybrid conjugates (CMC 1-CMC 6) with two different human breast cancer cell lines [T47D, an ER-positive BC cell line and MDA-MB231 (MB231), a triple-receptor negative BC (TNBC) cell line] using the colorimetric MTT (3-(4,5-dimethylthiazol-2yl)-2,5-diphenyltetrazolium bromide) cell proliferation assay kit.
(§2) […] and MB231 cells (5×10^3) were seed in 96-well plates and left them in the cell culture incubator at 37° C. with 5% CO2 in DMEM and RPMI medium (100 μl), respectively. After 24 h, the medium was replaced with the CMC compounds at different concentrations (0, 1, 5, and 10 μM) for 72 h. After 72 h, 10 μl Reliablue reagent was added to each well and incubated for 2 h for the formation of purple formazan and then added 100 μl of detergent to dissociate the formazan precipitate and measured at 570 nm. Values are shown as mean±SEM of three experiments with 6 wells in each, a total of 18 repeats.

FVB/N mice = test: Adverse effects and toxicity in normal mice; type: in vivo, mouse; conditions: oral gavage 50 and 100 mg/kg body, 7 days
Experimental: Adverse effects and toxicity to the normal cells are the most challenging part of the anticancer drug development process. […] The body weight and any side effects of contraindication monitored during the period.
Control mice received PBS. After one weak of drug administration, mouse weight was measured every day for 7 days. We used 3 mice in each group. (A) Body weight changes in control mice (B and C) Body weight changes in CMC1 (50 and 100 mg/kg body). (D and E) Body weight changes in CMC1 (50 and 100 mg/kg body) Computational Studies: […]

T47D cells = test: MTT cell proliferation assay, T47D cells; type: cell-based, human; conditions: 72 h
Experimental: as §1, §2

MMTV-PyMT-Tg mice = test: Tumor growth in genetically engineered mouse (GEM) model of breast cancer; type: in vivo; conditions: 10 mg/kg body, three times a week by oral gavage for 7 weeks
Experimental: The antitumor potential of one of the most potential CMC compound, CMC2, in genetically engineered mouse (GEM) model of breast cancer, MMTV-PyMT-Tg mice was tested. The MMTV-PyMT-Tg mouse was mainly chosen because the tumor formation and progression in this mouse is characterized by four different stages (hyperplasia, adenoma/mammary intra-epithelial neoplasia, early and late carcinoma) and also mimics human breast cancer, the tumor develops first as ER-positive (ER^+) but ultimately becomes ER-negative BC (ER^− BC).
It was randomly assigned 6-week-old MMTV-PyMT-Tg mice into two groups (3 mice in each); one control and one CMC2 treated (10 mg/kg body, three times a week by oral gavage for 7 weeks). Tumor volume was measured twice a week and the volume was calculated using the formula V=L×W^2/2, where L represents the largest tumor diameter and W represents the smallest tumor diameter. After the experimental period, tumor tissues were collected, a picture was taken, and tumor weight was measured. Tissue sections were prepared from the tumor tissue and stained for Hematoxylin and Eosin (H & E) section and also stained for the Ki67 for cell proliferation. Tissue sections and H & E sections were prepared from the Augusta University Histology core facility.
Six-week-old MMTV-PyMT-Tg mice were treated with CMC2 (10 mg/kg body for 3× a week for 7 weeks. Control mice received PBS. Tumor volume was measured twice a week and calculated (A). After the experimental period, tumor size (B) and tumor weight (C) were also analyzed. Tissue sections were prepared and stained with H & E and Ki67 (D). Values are shown as mean±SD of three mice in each.

SMILES | EC50 (MDA-MB231 (MB231) cells; Homo sapiens, MDA-MB-231, 72 h) | contraindication / side effects (FVB/N mice) | mouse growth (body weight) (FVB/N mice) | EC50 (T47D cells) | tumor growth (tumor volume) (MMTV-PyMT-Tg mice) | tumor size (MMTV-PyMT-Tg mice) | tumor weight (MMTV-PyMT-Tg mice) | EC50 (MDA-MB231 (MB231) cells; 72 h)
COc1cc(/C=C/C(=O)/C=C(O)/C=C/c2ccc(OC(=O)C(Cl)Cl)c(OC)c2)ccc1OC(=O)C(Cl)Cl [CMC 1] | 424 nM | no contraindication | normal |  |  |  |  | 
COc1cc(/C=C/C(=O)/C=C(O)/C=C/c2ccc(OC(=O)CNC(=O)C(Cl)Cl)c(OC)c2)ccc1OC(=O)CNC(=O)C(Cl)Cl [CMC 2] |  | no contraindication | normal | 1420 nM | significantly reduced | significantly reduced | significantly reduced | 778 nM
COc1cc(/C=C/C(=O)/C=C(O)/C=C/c2ccc(OC(=O)[C@H](C)NC(=O)C(Cl)Cl)c(OC)c2)ccc1OC(=O)[C@H](C)NC(=O)C(Cl)Cl [CMC 3] |  |  |  | 1600 nM |  |  |  | 518 nM
COc1cc(/C=C/C(=O)/C=C(O)/C=C/c2ccc(OC(=O)CCNC(=O)C(Cl)Cl)c(OC)c2)ccc1OC(=O)CCNC(=O)C(Cl)Cl [CMC 4] |  |  |  | 1260 nM |  |  |  | 1130 nM
COc1cc(/C=C/C(=O)/C=C(O)/C=C/c2ccc(OC(=O)[C@H](Cc3ccccc3)NC(=O)C(Cl)Cl)c(OC)c2)ccc1OC(=O)[C@H](Cc1ccccc1)NC(=O)C(Cl)Cl [CMC 5] |  |  |  | 1240 nM |  |  |  | 838 nM
COc1cc(/C=C/C(=O)/C=C(O)/C=C/c2ccc(OC(=O)CCCNC(=O)C(Cl)Cl)c(OC)c2)ccc1OC(=O)CCCNC(=O)C(Cl)Cl [CMC 6] |  |  |  | 1370 nM |  |  |  | 942 nM
